Results reported in patent US11787810B2, “Diacylglyceride O-acyltransferase 2 inhibitors” (Merck Sharp & Dohme Corp., priority 2020, dated 2023).

Biological target: human DGAT2 (hDGAT2) (Homo sapiens (Human), UniProt Q96PD7)
Assay: DGAT2 enzymatic activity assay (13C18-triolein formation, LC/MS/MS)
Type: biochemical
Conditions: hDGAT2 Sf-9 membrane prep, 25 μM diolein, 5 μM 13C oleoyl-CoA; read-out: Human DGAT2 IC50
Description: Sf-9 insect cells were maintained in Grace's insect cell culture medium with 10% heated-inactivated fetal bovine serum, 1% Pluronic F-68 and 0.14 μg/ml Kanamycine sulfate at 27° C. in a shaker incubator. After infection with untagged baculovirus expressing human DGAT2 (hDGAT2) at multiplicity of infection (MOI) 3 for 48 hours, cells were harvested. Cell pellets were suspended in buffer containing 10 mM Tris-HCl pH 7.5, 1 mM EDTA, 250 mM sucrose and Complete Protease Inhibitor Cocktail (Sigma Aldrich), and sonicated on ice. Cell debris were removed by centrifugation at 2000×g for 15 minutes. Membrane fractions were isolated by ultracentrifugation (100,000×g), resuspended in the same buffer, and frozen (−80° C.) for later use. The protein concentration was determined with the Pierce™ BCA Protein Assay Kit (Thermo Fisher Scientific). Expression of protein levels was analyzed by immunoblotting with rabbit anti-DGAT2 antibody (Abcam, ab102831) and donkey anti-rabbit IgG H&L Alexa Fluor® 647 (Abcam, ab150075) followed by detection using Typhoon FLA9000 (GE Healthcare).
LC/MS/MS analyses were performed using Thermal Fisher's LX4-TSQ Vantage system. This system consists of an Agilent binary high-performance liquid chromatography (HPLC) pumps and a TSQ Vantage triple quadrupole MS/MS instrument. For each sample, 2 μL samples from the top organic layer of in-plate liquid-liquid extraction were injected onto a Thermo Betabasic C4 column (2.1 mm×20 mm, 5 μm particle size). The samples were then eluted using the following conditions; mobile phase: Isopropanol:acetonitrile/10 mM ammonium formate=50/35/15 (v/v/v), flow rate: 0.8 mL/min, temperature: 25° C. Data was acquired in positive mode using a heated electrospray ionization (HESI) interface. The operational parameters for the TSQ Vantage MS/MS instrument were a spray voltage of 3000 V, capillary temperature of 280° C., vaporizer temperature 400° C., sheath gas 45 arbitrary unit, Aux gas 10 arbitrary units, S-lens 165 and collision gas 1.0 mTorr. […] (SRM) chromatograms of ^13C18-triolein (Q1: 920.8>Q3:621.3) and internal standard ^13C21-triolein (Q1: 923.8>Q3:617.3) were collected for 33 sec. The peak area was integrated by Xcalibur Quan software. The ratio between the ^13C18triolein generated in the reaction and spiked in internal standard ^13C21-triolein was used to generate percentage inhibition and IC50 values. Compound percentage inhibition was calculated by the following formula: Inhibition %=1-[(compound response−low control)/(high control−low control)]×100%. Potent compounds were titrated and IC50 were calculated by 4 parameter sigmoidal curve fitting formula.
DGAT2 activity was determined by measuring the amount of enzymatic product ^13C18-triolein (^13C-1,2,3-Tri(cis-9-octadecenoyl)glycerol) using the membrane prep mentioned above. The assay was carried out in ABgene 384-well assay plates in a final volume of 25 μL at rt. The assay mixture contained the following: assay buffer (100 mM Tris·Cl, pH 7.0, 20 mM MgCl2, 5% ethanol), 25 μM of diolein, 5 μM of ^13C oleoyl-CoA and 8 ng/μL of DGAT2 membrane.

Chain of human DGAT2 (hDGAT2) (Q96PD7 whole entry): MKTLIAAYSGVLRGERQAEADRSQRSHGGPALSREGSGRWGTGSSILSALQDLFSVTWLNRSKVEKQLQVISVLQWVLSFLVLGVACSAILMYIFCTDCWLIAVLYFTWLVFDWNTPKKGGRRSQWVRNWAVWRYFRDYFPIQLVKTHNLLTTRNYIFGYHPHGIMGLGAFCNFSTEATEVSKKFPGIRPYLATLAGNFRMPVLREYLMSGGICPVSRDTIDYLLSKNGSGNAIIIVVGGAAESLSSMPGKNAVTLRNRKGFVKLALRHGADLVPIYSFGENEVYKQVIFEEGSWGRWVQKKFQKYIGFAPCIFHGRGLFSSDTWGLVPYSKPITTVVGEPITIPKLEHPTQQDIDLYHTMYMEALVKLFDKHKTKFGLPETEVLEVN

Point of comparison: `CC1(NC(=O)c2cnc3c(-c4cccc(OC(F)F)c4)nn(C4CCOC(C(F)(F)F)C4)c3c2)CS(=O)(=O)C1` (single isomer, unassigned) [Example 76a, 3-(3-(difluoromethoxy)phenyl)-N-(3-methyl-1,1-dioxidothietan-3-yl)-1-(2-(trifluoromethyl)tetrahydro-2H-pyran-4-yl)-1H-pyrazolo[4,3-b]pyridine-6-carboxamide], IC50 21 nM. Against it:
- CC1(C#N)CC(n2nc(-c3cccc(OC(F)F)c3)c3ncc(C(=O)NC4(C)CS(=O)(=O)C4)cc32)C1 (single isomer, unassigned) [Example 87a, 1-(3-cyano-3-methylcyclobutyl)-3-(3-(difluoromethoxy)phenyl)-N-(3-methyl-1,1-dioxidothietan-3-yl)-1H-pyrazolo[4,3-b]pyridine-6-carboxamide] — 3.3-fold higher, 70 nM
- CC(O)C(C)NC(=O)c1cnc2c(-c3cccc(OC(F)F)c3)nn(C(C)C)c2c1 (single isomer, unassigned) [Example 45c, 3-(3-(difluoromethoxy)phenyl)-N-(3-hydroxybutan-2-yl)-1-isopropyl-1H-pyrazolo[4,3-b]pyridine-6-carboxamide] — 24-fold higher, 498 nM
- CCOc1cc(-c2nn(C(C)C)c3cc(C(=O)NC4(C)CS(=O)(=O)C4)cnc23)c(F)cn1 [Example 126, 3-(2-ethoxy-5-fluoropyridin-4-yl)-1-isopropyl-N-(3-methyl-1,1-dioxidothietan-3-yl)-1H-pyrazolo[4,3-b]pyridine-6-carboxamide] — within 1.5-fold, 27 nM
- C[C@]1(NC(=O)c2cnc3c(-c4cccc(OC(F)F)c4)nn(-c4ccc(F)cc4)c3c2)CCS(=O)(=O)C1 [Example 1, (S)-3-(3-(difluoromethoxy)phenyl)-1-(4-fluorophenyl)-N-(3-methyl-1,1-dioxidotetrahydrothiophen-3-yl)-1H-pyrazolo[4,3-b]pyridine-6-carboxamide] — 26-fold lower, 0.8 nM
- CC(C)n1nc(-c2cccc(C3(O)CC3)c2)c2ncc(C(=O)NC3(C)CS(=O)(=O)C3)cc21 [Example 127, 3-(3-(1-Hydroxycyclopropyl)phenyl)-1-isopropyl-N-(3-methyl-1,1-dioxidothietan-3-yl)-1H-pyrazolo[4,3-b]pyridine-6-carboxamide] — 14-fold higher, 298 nM
- CC(O)C(C)NC(=O)c1cnc2c(-c3cccc(OC(F)F)c3)nn(C(C)C)c2c1 (single isomer, unassigned) [Example 45b, 3-(3-(difluoromethoxy)phenyl)-N-(3-hydroxybutan-2-yl)-1-isopropyl-1H-pyrazolo[4,3-b]pyridine-6-carboxamide] — 25-fold higher, 520 nM
- CC1(NC(=O)c2cnc3c(-c4cccc(OC(F)F)c4)nn(CC(O)C(F)(F)F)c3c2)CS(=O)(=O)C1 (single isomer, unassigned) [Example 67a, 3-(3-(difluoromethoxy)phenyl)-N-(3-methyl-1,1-dioxidothietan-3-yl)-1-(3,3,3-trifluoro-2-hydroxypropyl)-1H-pyrazolo[4,3-b]pyridine-6-carboxamide] — 3.5-fold higher, 73 nM
- CC(C)n1nc(-c2cccc(OC(F)F)c2)c2ncc(C(=O)NC3(C)CCOC3)cc21 (single isomer, unassigned) [Example 48a, 3-(3-(difluoromethoxy)phenyl)-1-isopropyl-N-(3-methyltetrahydrofuran-3-yl)-1H-pyrazolo[4,3-b]pyridine-6-carboxamide] — 3.3-fold lower, 6.3 nM
- CC1(NC(=O)c2cnc3c(-c4cccc(OC(F)F)c4)nn(C4CCOC(C(F)(F)F)C4)c3c2)CS(=O)(=O)C1 (single isomer, unassigned) [Example 76b, 3-(3-(difluoromethoxy)phenyl)-N-(3-methyl-1,1-dioxidothietan-3-yl)-1-(2-(trifluoromethyl)tetrahydro-2H-pyran-4-yl)-1H-pyrazolo[4,3-b]pyridine-6-carboxamide] — 10-fold higher, 211 nM
- CCC(C)n1nc(-c2cccc(OC(F)F)c2)c2ncc(C(=O)NC3(C)CS(=O)(=O)C3)cc21 (single isomer, unassigned) [Example 66b, 3-[3-(difluoromethoxy)phenyl]-N-(3-methyl-1,1-dioxo-thietan-3-yl)-1-sec-butyl-pyrazolo[4,3-b]pyridine-6-carboxamide] — 14-fold lower, 1.5 nM
- CC(C)n1nc(-c2cccc(OC(F)F)c2)c2ncc(C(=O)NC3(C(C)O)CCOCC3)cc21 (single isomer, unassigned) [Example 73b, 3-(3-(difluoromethoxy)phenyl)-N-(4-(1-hydroxyethyl)tetrahydro-2H-pyran-4-yl)-1-isopropyl-1H-pyrazolo[4,3-b]pyridine-6-carboxamide] — 3.5-fold higher, 74 nM
- CC1(NC(=O)c2cnc3c(-c4cccc(OC(F)F)c4)nn(C4CCOC(C)(C)C4)c3c2)CS(=O)(=O)C1 (single isomer, unassigned) [Example 77b, 3-(3-(difluoromethoxy)phenyl)-1-(2,2-dimethyltetrahydro-2H-pyran-4-yl)-N-(3-methyl-1,1-dioxidothietan-3-yl)-1H-pyrazolo[4,3-b]pyridine-6-carboxamide] — 2.8-fold lower, 7.4 nM
- CC(C)n1nc(-c2cccc(OC(F)F)c2)c2ncc(C(=O)NC3(C(C)O)CCOC3)cc21 (single isomer, unassigned) [Example 50a, 3-(3-(difluoromethoxy)phenyl)-N-(3-(1-hydroxyethyl)tetrahydrofuran-3-yl)-1-isopropyl-1H-pyrazolo[4,3-b]pyridine-6-carboxamide] — 6.3-fold higher, 132 nM
- CC1(NC(=O)c2cnc3c(-c4cccc(OC(F)F)c4)nn([C@@H]4COC[C@H]4O)c3c2)CS(=O)(=O)C1 (single isomer, unassigned) [Example 53a, 3-(3-(difluoromethoxy)phenyl)-1-((trans)-4-hydroxytetrahydrofuran-3-yl)-N-(3-methyl-1,1-dioxidothietan-3-yl)-1H-pyrazolo[4,3-b]pyridine-6-carboxamide] — within 1.5-fold, 16 nM
- C[C@]1(NC(=O)c2cnc3c(-c4cccc(OC(F)F)c4)nn(C4CCOC4)c3c2)CCS(=O)(=O)C1 (single isomer, unassigned) [Example 60a] — 29-fold higher, 600 nM
- CC(O)Cn1nc(-c2cccc(OC(F)F)c2)c2ncc(C(=O)NC3(C)CS(=O)(=O)C3)cc21 (single isomer, unassigned) [Example 68a, 3-(3-(difluoromethoxy)phenyl)-1-(2-hydroxypropyl)-N-(3-methyl-1,1-dioxidothietan-3-yl)-1H-pyrazolo[4,3-b]pyridine-6-carboxamide] — within 1.5-fold, 18 nM

Same assay, conditions: table head without 'Human'; same membrane assay; read-out: DGAT2 IC50

Point of comparison: `CC(n1nc(-c2cccc(OC(F)F)c2)c2ncc(C(=O)NC3(C)CS(=O)(=O)C3)cc21)C(C)(C)O` (single isomer, unassigned) [Example 130b, 3-(3-(difluoromethoxy)phenyl)-1-(3-hydroxy-3-methylbutan-2-yl)-N-(3-methyl-1,1-dioxidothietan-3-yl)-1H-pyrazolo[4,3-b]pyridine-6-carboxamide], IC50 80 nM. Against it:
- CC(n1nc(-c2cc(OC(F)F)ncc2F)c2cnc(C(=O)NC3(C)CS(=O)(=O)C3)cc21)C(C)(C)O (single isomer, unassigned) [Example 133b, 3-(2-(difluoromethoxy)-5-fluoropyridin-4-yl)-1-(3-hydroxy-3-methylbutan-2-yl)-N-(3-methyl-1,1-dioxidothietan-3-yl)-1H-pyrazolo[4,3-c]pyridine-6-carboxamide] — 5.3-fold lower, 15 nM
